Source: US8735431B2, “Active compound combinations having insecticidal properties” (priority 2003, dated 2014)

Row | Compound | melting point [°C]
1 | CC(C)NC(=O)c1cc(Cl)cc(Cl)c1NC(=O)c1cc(C(F)(F)F)nn1-c1ncccc1Cl | 200 to 201
2 | CCNC(=O)c1cc(Cl)cc(C)c1NC(=O)c1cc(C(F)(F)F)nn1-c1ncccc1Cl | 163 to 164
3 | CCNC(=O)c1cc(Cl)cc(C)c1NC(=O)c1cc(Cl)nn1-c1ncccc1Cl | 199 to 200
4 | CCNC(=O)c1cc(Cl)cc(Cl)c1NC(=O)c1cc(Br)nn1-c1ncccc1Cl | 214 to 215
5 | Cc1cc(Cl)cc(C(=O)NC(C)(C)C)c1NC(=O)c1cc(Cl)nn1-c1ncccc1Cl | 163 to 165
6 | CC(C)(C)NC(=O)c1cc(Cl)cc(Cl)c1NC(=O)c1cc(C(F)(F)F)nn1-c1ncccc1Cl | 170 to 172
7 | CNC(=O)c1cc(Cl)cc(C)c1NC(=O)c1cc(Cl)nn1-c1ncccc1Cl | 225 to 226
8 | CCNC(=O)c1cc(Br)cc(C)c1NC(=O)c1cc(C(F)(F)F)nn1-c1ncccc1Cl | 192 to 193
9 | Cc1cc(Br)cc(C(=O)NC(C)C)c1NC(=O)c1cc(Cl)nn1-c1ncccc1Cl | 152 to 153
10 | CNC(=O)c1cc(Br)cc(C)c1NC(=O)c1cc(Br)nn1-c1ncccc1Cl | 147 to 149
11 | CCNC(=O)c1cc(Br)cc(C)c1NC(=O)c1cc(Br)nn1-c1ncccc1Cl | 194 to 196
12 | Cc1cc(Br)cc(C(=O)NC(C)C)c1NC(=O)c1cc(Br)nn1-c1ncccc1Cl | 185 to 187
13 | Cc1cc(Br)cc(C(=O)NC(C)(C)C)c1NC(=O)c1cc(Br)nn1-c1ncccc1Cl | 215 to 221
14 | CCNC(=O)c1cc(I)cc(C)c1NC(=O)c1cc(C(F)(F)F)nn1-c1ncccc1Cl | 199 to 200
15 | Cc1cc(I)cc(C(=O)NC(C)(C)C)c1NC(=O)c1cc(C(F)(F)F)nn1-c1ncccc1Cl | 242 to 243
16 | CCNC(=O)c1cc(I)cc(C)c1NC(=O)c1cc(Cl)nn1-c1ncccc1Cl | 196 to 197
17 | Cc1cc(I)cc(C(=O)NC(C)C)c1NC(=O)c1cc(Cl)nn1-c1ncccc1Cl | 189 to 190

Row | Compound | melting point [°C]
18 | CNC(=O)c1cc(Cl)cc(Cl)c1NC(=O)c1cc(C(F)(F)F)nn1-c1ncccc1Cl | 155 to 157
19 | Cc1cc(I)cc(C(=O)NC(C)C)c1NC(=O)c1cc(Br)nn1-c1ncccc1Cl | 191 to 192
20 | CNC(=O)c1cc(Br)cc(Br)c1NC(=O)c1cc(C(F)(F)F)nn1-c1ncccc1Cl | 162 to 163
21 | CCNC(=O)c1cc(Br)cc(Br)c1NC(=O)c1cc(C(F)(F)F)nn1-c1ncccc1Cl | 188 to 189
22 | CC(C)(C)NC(=O)c1cc(Br)cc(Br)c1NC(=O)c1cc(C(F)(F)F)nn1-c1ncccc1Cl | 246 to 247
23 | CNC(=O)c1cc(Br)cc(Br)c1NC(=O)c1cc(Cl)nn1-c1ncccc1Cl | 188 to 190
24 | CCNC(=O)c1cc(Br)cc(Br)c1NC(=O)c1cc(Cl)nn1-c1ncccc1Cl | 192 to 194
25 | CC(C)NC(=O)c1cc(Br)cc(Br)c1NC(=O)c1cc(Cl)nn1-c1ncccc1Cl | 197 to 199
26 | CCNC(=O)c1cc(Br)cc(Br)c1NC(=O)c1cc(Br)nn1-c1ncccc1Cl | 196 to 197
27 | CC(C)(C)NC(=O)c1cc(Br)cc(Br)c1NC(=O)c1cc(Br)nn1-c1ncccc1Cl | 194 to 196
28 | CN(C)C(=O)c1cc(Br)cc(Br)c1NC(=O)c1cc(Cl)nn1-c1ncccc1Cl | 153 to 155
29 | Cc1cc(Br)cc(C(=O)N(C)C)c1NC(=O)c1cc(C(F)(F)F)nn1-c1ncccc1Cl | 207 to 208
30 | CNC(=O)c1cc(Cl)cc(Cl)c1NC(=O)c1cc(Cl)nn1-c1ncccc1Cl | 205 to 206
31 | CN(C)C(=O)c1cc(Cl)cc(Cl)c1NC(=O)c1cc(C(F)(F)F)nn1-c1ncccc1Cl | 225 to 227
32 | CN(C)C(=O)c1cc(Br)cc(Br)c1NC(=O)c1cc(C(F)(F)F)nn1-c1ncccc1Cl | 228 to 229
33 | CNC(=O)c1cc(Cl)cc(Cl)c1NC(=O)c1cc(Br)nn1-c1ncccc1Cl | 245 to 246
